Experimental data as given in ChEMBL document CHEMBL3808348, “Rational Design, Synthesis, and Biological Evaluation of 7-Azaindole Derivatives as Potent Focused Multi-Targeted Kinase Inhibitors” (J Med Chem, 2016).

Legend:
[1] = target: Vascular endothelial growth factor receptor 2 (Homo sapiens) (UniProt P35968); assay: Inhibition of full length His-tagged human recombinant VEGFR2 expressed in baculovirus using Fluorescein-Poly GT as substrate at 100 nM
[2] = target: Leukocyte tyrosine kinase receptor (Homo sapiens) (UniProt P29376); settings: 100 nM
Description: Inhibition of GST-tagged human recombinant TYK1 (450 to 864 residues) expressed in baculovirus using Fluorescein-Poly GT as substrate at 100 nM

[3] = target: 3-phosphoinositide-dependent protein kinase 1 (Homo sapiens) (UniProt O15530); settings: 100 nM
Description: Inhibition of PDK1 (unknown origin) at 100 nM

[4] = target: Serine/threonine-protein kinase B-raf (Homo sapiens) (UniProt P15056); assay: Inhibition of full length GST-tagged human recombinant BRAF expressed in baculovirus using Fluorescein-MAP2K1 as substrate at 100 nM
[5] = system: Tyrosine-protein kinase ABL1 (Homo sapiens), P00519 [Y253F]; assay: Inhibition of His-tagged full length human recombinant ABL Y253F mutant expressed in baculovirus using Fluorescein-Poly GT as substrate at 100 nM
[6] = target: Tyrosine-protein kinase ABL2 (Homo sapiens) (UniProt P42684); settings: 100 nM
Description: Inhibition of His-tagged full length human recombinant ARG expressed in baculovirus using Fluorescein-Poly GT as substrate at 100 nM

[7] = target: Tyrosine-protein kinase ABL1 (Homo sapiens, UniProt P00519); assay: Inhibition of His-tagged full length human recombinant wild type ABL expressed in baculovirus using Fluorescein-Poly GT as substrate
A549 = assay: Antiproliferative activity against human A549 cells after 72 hrs by MTT assay; format: functional, cell-based; settings: A549, 72 h
[8] = target: Tyrosine-protein kinase Yes (Homo sapiens, UniProt P07947); assay: Inhibition of GST-tagged full length human recombinant YES expressed in baculovirus using Fluorescein-Poly GT as substrate
[9] = target: Hepatocyte growth factor receptor (Homo sapiens) (UniProt P08581); settings: 100 nM
Description: Inhibition of GST-tagged human recombinant cMET (956 to 1390 residues) expressed in baculovirus using Fluorescein-Poly GT as substrate at 100 nM

[10] = target: Cyclin-dependent kinase 5/CDK5 activator 1 (Homo sapiens) (UniProt Q00535+Q15078); settings: 100 nM
Description: Inhibition of CDK5/p25 (unknown origin) at 100 nM

[11] = target: Proto-oncogene tyrosine-protein kinase ROS (Homo sapiens) (UniProt P08922); settings: 100 nM
Description: Inhibition of GST-tagged human recombinant ROS1 (1883 to 2347 residues) expressed in baculovirus using Fluorescein-Poly GT as substrate at 100 nM

[12] = target: Dual specificity mitogen-activated protein kinase kinase 1 (Homo sapiens) (UniProt Q02750); settings: 100 nM
Description: Inhibition of full length His-tagged human recombinant MEK1 expressed in baculovirus expression system at 100 nM

[13] = target: Serine/threonine-protein kinase Nek2 (Homo sapiens) (UniProt P51955); settings: 100 nM
Description: Inhibition of HIS-tagged full length human recombinant NEK2 expressed in baculovirus using Fluorescein-PKC as substrate at 100 nM

3-phosphoinositide-dependent protein kinase 1 (Homo sapiens), sequence (O15530 whole entry): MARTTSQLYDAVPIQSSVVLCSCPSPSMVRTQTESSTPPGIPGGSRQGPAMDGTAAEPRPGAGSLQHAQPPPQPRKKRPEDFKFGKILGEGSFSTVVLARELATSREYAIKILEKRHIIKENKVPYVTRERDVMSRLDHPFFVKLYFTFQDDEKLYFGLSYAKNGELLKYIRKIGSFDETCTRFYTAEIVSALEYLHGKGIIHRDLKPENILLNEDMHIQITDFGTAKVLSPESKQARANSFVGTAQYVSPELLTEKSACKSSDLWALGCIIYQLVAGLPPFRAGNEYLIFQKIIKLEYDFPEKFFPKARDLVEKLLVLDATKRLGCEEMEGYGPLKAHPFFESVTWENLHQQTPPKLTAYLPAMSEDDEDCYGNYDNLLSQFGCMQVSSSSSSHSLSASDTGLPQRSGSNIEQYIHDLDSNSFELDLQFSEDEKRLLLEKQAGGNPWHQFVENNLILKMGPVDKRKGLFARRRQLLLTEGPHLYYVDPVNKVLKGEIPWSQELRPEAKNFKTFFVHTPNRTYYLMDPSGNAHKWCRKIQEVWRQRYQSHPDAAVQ
Dual specificity mitogen-activated protein kinase kinase 1 (Homo sapiens), sequence (Q02750 whole entry): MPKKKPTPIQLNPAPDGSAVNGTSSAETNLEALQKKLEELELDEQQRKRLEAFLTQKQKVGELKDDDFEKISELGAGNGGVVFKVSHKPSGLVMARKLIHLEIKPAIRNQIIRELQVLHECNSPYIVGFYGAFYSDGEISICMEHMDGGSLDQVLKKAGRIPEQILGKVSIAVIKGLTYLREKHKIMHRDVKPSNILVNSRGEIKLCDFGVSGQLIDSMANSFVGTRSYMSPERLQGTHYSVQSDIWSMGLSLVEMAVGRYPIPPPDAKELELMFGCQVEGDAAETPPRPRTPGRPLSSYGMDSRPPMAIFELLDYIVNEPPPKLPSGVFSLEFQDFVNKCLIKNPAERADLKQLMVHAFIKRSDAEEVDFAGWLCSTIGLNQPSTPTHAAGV
Tyrosine-protein kinase ABL2 (Homo sapiens), sequence (P42684 whole entry): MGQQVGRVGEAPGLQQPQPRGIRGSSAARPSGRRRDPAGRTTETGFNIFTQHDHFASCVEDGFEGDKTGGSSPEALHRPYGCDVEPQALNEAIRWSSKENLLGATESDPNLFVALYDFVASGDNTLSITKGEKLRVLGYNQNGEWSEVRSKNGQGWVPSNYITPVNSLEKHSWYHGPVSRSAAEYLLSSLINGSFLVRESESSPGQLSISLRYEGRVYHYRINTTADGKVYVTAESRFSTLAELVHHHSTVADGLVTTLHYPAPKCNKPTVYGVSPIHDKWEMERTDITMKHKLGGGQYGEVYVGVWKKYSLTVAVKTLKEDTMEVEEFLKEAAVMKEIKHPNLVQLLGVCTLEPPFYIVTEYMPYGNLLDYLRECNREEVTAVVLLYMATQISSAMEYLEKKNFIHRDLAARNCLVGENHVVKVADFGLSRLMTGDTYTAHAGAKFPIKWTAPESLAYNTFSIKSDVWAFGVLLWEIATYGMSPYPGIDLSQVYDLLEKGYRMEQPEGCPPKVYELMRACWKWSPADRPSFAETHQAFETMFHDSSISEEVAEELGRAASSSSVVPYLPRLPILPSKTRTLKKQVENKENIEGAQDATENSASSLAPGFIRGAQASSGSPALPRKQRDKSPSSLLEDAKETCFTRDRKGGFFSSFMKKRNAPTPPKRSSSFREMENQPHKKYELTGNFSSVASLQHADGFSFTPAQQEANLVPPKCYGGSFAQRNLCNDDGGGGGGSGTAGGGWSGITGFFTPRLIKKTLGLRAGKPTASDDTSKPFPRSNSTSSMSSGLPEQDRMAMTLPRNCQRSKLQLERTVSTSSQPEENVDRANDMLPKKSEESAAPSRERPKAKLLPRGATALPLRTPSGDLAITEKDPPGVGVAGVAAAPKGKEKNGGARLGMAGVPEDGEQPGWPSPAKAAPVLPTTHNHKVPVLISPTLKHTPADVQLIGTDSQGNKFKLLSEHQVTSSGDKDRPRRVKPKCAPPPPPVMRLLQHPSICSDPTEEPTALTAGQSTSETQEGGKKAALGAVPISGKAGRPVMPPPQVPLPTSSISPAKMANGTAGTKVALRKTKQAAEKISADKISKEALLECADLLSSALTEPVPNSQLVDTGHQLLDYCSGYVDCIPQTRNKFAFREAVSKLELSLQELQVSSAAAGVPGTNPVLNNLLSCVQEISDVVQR
Serine/threonine-protein kinase B-raf (Homo sapiens), sequence (P15056 whole entry): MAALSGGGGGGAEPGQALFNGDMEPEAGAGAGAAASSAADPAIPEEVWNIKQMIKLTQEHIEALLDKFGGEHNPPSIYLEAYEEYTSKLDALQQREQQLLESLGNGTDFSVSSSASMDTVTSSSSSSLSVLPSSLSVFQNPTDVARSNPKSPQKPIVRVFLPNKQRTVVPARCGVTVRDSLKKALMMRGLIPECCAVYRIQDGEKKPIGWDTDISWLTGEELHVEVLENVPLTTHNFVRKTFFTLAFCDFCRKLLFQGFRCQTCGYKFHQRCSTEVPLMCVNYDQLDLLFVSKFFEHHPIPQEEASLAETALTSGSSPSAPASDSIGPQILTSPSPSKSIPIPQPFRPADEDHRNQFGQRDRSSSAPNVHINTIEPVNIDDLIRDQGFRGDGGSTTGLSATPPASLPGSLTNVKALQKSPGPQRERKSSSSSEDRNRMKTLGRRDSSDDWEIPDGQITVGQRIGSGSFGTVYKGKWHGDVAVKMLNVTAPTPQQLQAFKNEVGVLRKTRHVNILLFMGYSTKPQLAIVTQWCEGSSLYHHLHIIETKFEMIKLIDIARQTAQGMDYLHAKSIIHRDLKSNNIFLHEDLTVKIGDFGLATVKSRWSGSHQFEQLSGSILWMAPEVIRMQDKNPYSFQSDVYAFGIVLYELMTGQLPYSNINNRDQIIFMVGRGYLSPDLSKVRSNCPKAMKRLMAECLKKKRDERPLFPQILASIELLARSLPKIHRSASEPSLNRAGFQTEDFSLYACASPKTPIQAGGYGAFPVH
Vascular endothelial growth factor receptor 2 (Homo sapiens), sequence (P35968 whole entry): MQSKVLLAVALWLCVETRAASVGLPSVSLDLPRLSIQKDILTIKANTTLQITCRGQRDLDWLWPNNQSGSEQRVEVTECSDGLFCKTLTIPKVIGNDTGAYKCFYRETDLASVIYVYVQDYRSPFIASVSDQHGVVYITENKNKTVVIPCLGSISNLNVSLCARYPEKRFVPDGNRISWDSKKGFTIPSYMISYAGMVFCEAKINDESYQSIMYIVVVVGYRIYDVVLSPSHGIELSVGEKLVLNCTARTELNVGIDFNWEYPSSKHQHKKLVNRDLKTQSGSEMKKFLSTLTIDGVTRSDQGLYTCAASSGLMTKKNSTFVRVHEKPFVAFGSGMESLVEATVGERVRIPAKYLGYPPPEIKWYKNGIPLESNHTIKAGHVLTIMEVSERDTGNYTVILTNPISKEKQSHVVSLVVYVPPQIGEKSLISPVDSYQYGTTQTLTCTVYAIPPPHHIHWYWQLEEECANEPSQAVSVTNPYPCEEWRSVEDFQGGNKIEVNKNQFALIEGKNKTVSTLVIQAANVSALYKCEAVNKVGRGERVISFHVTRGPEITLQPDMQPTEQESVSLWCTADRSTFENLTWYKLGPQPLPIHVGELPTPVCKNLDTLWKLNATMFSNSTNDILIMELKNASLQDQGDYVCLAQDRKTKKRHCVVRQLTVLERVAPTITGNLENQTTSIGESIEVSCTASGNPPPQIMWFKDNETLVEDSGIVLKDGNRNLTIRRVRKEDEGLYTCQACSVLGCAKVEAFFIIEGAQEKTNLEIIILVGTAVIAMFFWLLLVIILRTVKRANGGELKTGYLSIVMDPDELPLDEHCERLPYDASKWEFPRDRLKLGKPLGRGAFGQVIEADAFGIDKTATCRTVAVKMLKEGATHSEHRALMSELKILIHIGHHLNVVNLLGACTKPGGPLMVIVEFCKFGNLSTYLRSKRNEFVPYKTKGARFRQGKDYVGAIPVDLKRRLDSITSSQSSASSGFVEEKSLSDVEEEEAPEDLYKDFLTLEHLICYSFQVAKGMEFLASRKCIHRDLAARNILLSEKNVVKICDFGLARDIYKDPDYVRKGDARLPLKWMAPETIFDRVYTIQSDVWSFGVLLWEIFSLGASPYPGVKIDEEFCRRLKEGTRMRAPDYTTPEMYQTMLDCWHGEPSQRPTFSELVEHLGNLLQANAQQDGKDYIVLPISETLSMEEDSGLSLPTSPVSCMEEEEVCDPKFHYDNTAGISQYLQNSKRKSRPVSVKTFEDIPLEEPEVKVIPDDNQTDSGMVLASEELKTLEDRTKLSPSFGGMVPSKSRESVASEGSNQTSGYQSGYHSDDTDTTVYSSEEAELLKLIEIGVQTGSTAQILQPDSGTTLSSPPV
Tyrosine-protein kinase Yes, sequence (P07947 whole entry): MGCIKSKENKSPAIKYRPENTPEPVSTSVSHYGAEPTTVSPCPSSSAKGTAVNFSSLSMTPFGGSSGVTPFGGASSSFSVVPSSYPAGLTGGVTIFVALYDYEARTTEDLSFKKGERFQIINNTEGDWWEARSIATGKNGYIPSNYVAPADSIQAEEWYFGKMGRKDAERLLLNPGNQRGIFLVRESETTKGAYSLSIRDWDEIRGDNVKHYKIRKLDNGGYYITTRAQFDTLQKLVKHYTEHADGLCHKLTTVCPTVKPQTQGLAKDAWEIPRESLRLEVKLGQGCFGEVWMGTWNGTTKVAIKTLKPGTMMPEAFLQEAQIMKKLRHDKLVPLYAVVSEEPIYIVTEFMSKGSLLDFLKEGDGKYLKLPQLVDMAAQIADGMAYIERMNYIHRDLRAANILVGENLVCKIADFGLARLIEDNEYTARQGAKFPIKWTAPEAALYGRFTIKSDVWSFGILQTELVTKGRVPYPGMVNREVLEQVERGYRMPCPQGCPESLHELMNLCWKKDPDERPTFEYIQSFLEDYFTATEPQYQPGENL

`COC(=O)c1cc2cc(NCc3cc(NC(=O)c4cc(-n5cnc(C)c5)cc(C(F)(F)F)c4)ccc3C)cnc2[nH]1` gave an inhibition [1] of 46%, an inhibition [2] of less than 40% and an inhibition [3] of less than 40%. The inhibition [4] was 54%, the inhibition [5] was greater than 80% and the inhibition [6] was less than 40%. For the same molecule, the IC50 [7] was 6 nM, the EC50 (A549) was 64 nM and the IC50 [8] was 44 nM. It also gave an inhibition [9] of less than 40%, an inhibition [10] of less than 40% and an inhibition [11] of less than 40%. For the same molecule, the inhibition [12] was less than 40% and the inhibition [13] was less than 40%.
